According to article PMC10253456, “Investigating the Contribution of Major Drug-Metabolising Enzymes to Possum-Specific Fertility Control” (International Journal of Molecular Sciences, 2023):
Where two headings read alike, the source gives them in different places.

What was measured:
[1] = test system: CYP3A; conditions: avian; for % of control (catalytic activity at 2-fold IC50) / Catalytic activity at 2-fold IC50: compound at estimated 2-fold IC50 (5 µM where none reported); for % of control (catalytic activity at IC50): compound at estimated IC50 (1 µM where none reported)
Procedure: (§1) Possums were collected from the Otago Peninsula (Dunedin) and the Okuti Valley, Banks Peninsula (Christchurch) in New Zealand in collaboration with the Otago Peninsula Biodiversity Group and Manaaki Whenua-Landcare Research, respectively. […] Possums were caged and humanely killed by a blow to the head, and the livers were harvested, snap-frozen in liquid nitrogen, and stored in a freezer at −80 °C until the preparation of microsomal fractions. […] Mice were euthanised by carbon dioxide inhalation and the livers were removed and microsomes prepared. […] The livers from avian species (mallards and a swan) were kindly donated by a local bird hunting group based in Dunedin, New Zealand. The livers from avian species were treated similarly to those mentioned above for the possum samples.
(§2) Microsomal preparation was carried out as previously described [76]. […] All procedures were performed at 0–4 °C. The liver samples were minced and homogenised in Buffer A (0.1 M Tris, 0.1 M potassium chloride, 1 mM EDTA, and 20 μM butylated hydroxytoluene, at pH = 7.4) using the Teflon-glass homogeniser (5–6 vertical passes). The samples were centrifuged at 10,000× g for 20 min. The supernatant was then transferred into another set of centrifuge tubes and spun at 100,000× g for 60 min. The pellet was resuspended in Buffer B (0.1 M potassium pyrophosphate, 1 mM EDTA, and 20 μM butylated hydroxytoluene, at pH = 7.4), homogenised, and recentrifuged at 100,000× g for 60 min. Finally, the pellet was homogenised in 1–2 mL of Buffer C (10 mM Tris-HCl, 1 mM EDTA, and 4% glycerol (v/v)), and stored at −80 °C until use. The protein concentration of the microsomes was determined using the bicinchoninic acid (BCA) method [77].
(§3) CYP3A catalytic activity was determined using the erythromycin N-demethylation activity assay, as described [78]. The reaction mixture (final volume of 1 mL and final protein concentration of 1 mg) contained 500 µL of microsomes in 0.1 M phosphate buffer (pH 7.4) and 400 µL of erythromycin buffer (0.45 mM), and 50 µL of the test compound was pre-warmed at 37 °C for 2 min. The reaction was initiated with 50 µL of 2.5 mM nicotinamide adenine dinucleotide phosphate (NADP^+) and incubated for 30 min at 37 °C. […] The tubes were vortexed and left for 5 min (at room temperature), and then 330 µL of saturated barium hydroxide was added. The tubes were further vortexed and left for 5 min (at room temperature). The tubes were then centrifuged at 1800× g for 10 min. To 830 µL of the supernatant, 330 µL of Nash reagent (30% (w/v) ammonium acetate, 0.4% (v/v) acetylacetone) was added and further incubated for 30 min at 60 °C. The blank tube contained 330 µL of Nash reagent and 830 µL of Milli-Q water. […] The CYP3A activities were determined in nmol/mg/min using standard curve data. Results presented are the mean ± SEM of 3 independent experiments performed in duplicate unless otherwise stated.

[2] = test system: CYP3A; assay: CYP3A catalytic activity (erythromycin N-demethylation) in mouse liver microsomes; conditions: for Percent control catalytic activity at estimated IC50 / Percent control catalytic activity at estimated 2-fold IC50: mouse liver microsomes, initial screen n=1; for Percent control catalytic activity at estimated IC50: compounds without reported IC50 at 1 µM; for Percent control catalytic activity at estimated 2-fold IC50: compounds without reported IC50 at 5 µM; for % of control (catalytic activity at 2-fold IC50) / Catalytic activity at 2-fold IC50: compound at estimated 2-fold IC50 (5 µM where none reported); for % of control (catalytic activity at IC50): compound at estimated IC50 (1 µM where none reported)
Procedure: as §1, §2, §3

[3] = test system: CYP3A; assay: CYP3A catalytic activity (erythromycin N-demethylation) in possum liver microsomes; conditions: for Percent control catalytic activity at estimated IC50 / Percent control catalytic activity at estimated 2-fold IC50: possum liver microsomes, initial screen n=1; for Percent control catalytic activity at estimated IC50: compounds without reported IC50 at 1 µM; for Percent control catalytic activity at estimated 2-fold IC50: compounds without reported IC50 at 5 µM; for % of control (catalytic activity at 2-fold IC50) / Catalytic activity at 2-fold IC50: compound at estimated 2-fold IC50 (5 µM where none reported); for % of control (catalytic activity at IC50): compound at estimated IC50 (1 µM where none reported)
Procedure: as §1, §2, §3

[4] = test system: CYP3A; assay: CYP3A catalytic activity (erythromycin N-demethylation) in pooled human liver microsomes; conditions: compound at estimated 2-fold IC50 (5 µM where none reported)
Procedure: as §3

SMILES | % of control (catalytic activity at 2-fold IC50) [1] | Catalytic activity at 2-fold IC50 [1] | % of control (catalytic activity at IC50) [1] | Percent control catalytic activity at estimated IC50 [2] | Percent control catalytic activity at estimated 2-fold IC50 [2] | % of control (catalytic activity at 2-fold IC50) ([2]; mouse) | Catalytic activity at 2-fold IC50 ([2]; mouse) | % of control (catalytic activity at IC50) ([2]; mouse) | Percent control catalytic activity at estimated IC50 [3] | Percent control catalytic activity at estimated 2-fold IC50 [3] | % of control (catalytic activity at 2-fold IC50) ([3]; possum) | Catalytic activity at 2-fold IC50 ([3]; possum) | % of control (catalytic activity at IC50) ([3]; possum) | inhibition of CYP3A catalytic activities at higher concentration ([2]; mouse, 10 µM) | inhibition of CYP3A catalytic activities at higher concentration ([3]; possum, 10 µM) | reduced catalytic activity of possum CYP3A, % of the control ([3]; possum, mainly at 5 µM or an estimated 2-fold IC50, not significantly different) | % of control (catalytic activity at 2-fold IC50) [4] | Catalytic activity at 2-fold IC50 [4]
CC(=O)c1ccccc1O [2'-Hydroxyacetophenone] | 102 % of control | 0.36 ± 0.05 nmol/mg/min | 101 % of control | 112 percent control | 80 percent control | 75 % of control | 0.35 ± 0.05 nmol/mg/min | 129 % of control | 108 percent control | 105 percent control | 102 % of control | 0.29 ± 0.05 nmol/mg/min | 120 % of control |  |  |  |  | 
O=C1c2ccccc2C(=O)c2c1ccc(O)c2O [Alizarin] | 94 % of control | 0.30 ± 0.04 nmol/mg/min |  | 91 percent control | 89 percent control | 96 % of control | 0.57 ± 0.06 nmol/mg/min |  | 70 percent control | 77 percent control | 84 % of control | 0.27 ± 0.01 nmol/mg/min |  | did not show any significant inhibition | did not show any significant inhibition | ~ 35 % of the control | 98 % of control | 0.57 nmol/mg/min
C/C1=C/CC[C@H](C)C(=O)C[C@@H](C(C)C)C(=O)C1 [Curdione] | 99 % of control | 0.41 ± 0.04 nmol/mg/min | 97 % of control | 143 percent control | 134 percent control | 94 % of control | 0.38 ± 0.05 nmol/mg/min | 114 % of control | 92 percent control | 103 percent control | 99 % of control | 0.37 ± 0.03 nmol/mg/min | 91 % of control |  |  |  |  | 
CC(C)(C)C(O)/C=C/c1ccc2c(c1)OCO2 (centres unmarked) [Stiripentol] |  |  |  | 119 percent control | 102 percent control |  |  |  | 109 percent control | 105 percent control |  |  |  |  |  |  |  | 
c1ccc2[nH]c(-c3cscn3)nc2c1 [Thiabendazole] |  |  |  | 85 percent control | 95 percent control |  |  |  | 94 percent control | 92 percent control |  |  |  |  |  |  |  | 
CC(C)(C)C(O)/C(=C\c1ccc(Cl)cc1)n1cncn1 (centres unmarked) [Uniconazole] |  |  |  | 67 percent control | 40 percent control |  |  |  | 82 percent control | 84 percent control |  |  |  |  |  |  |  | 
